Measured values as given in patent US20250179047A1, “5-[7-(3,4-DIHYDRO-1H-ISOQUINOLINE-2-CARBONYL)-1,2,3,4 TETRAHYDROISOQUINOLIN-6-YL]-1H-PYRROLE-3-CARBOXAMIDE DERIVATIVES, PHARMACEUTICAL COMPOSITIONS CONTAINING THEM AND THEIR USES AS PRO-APOPTOTIC AGENTS” (LES LABORATOIRES SERVIER, priority 2022, published 2025).

What was measured:
BCL2 WT = BCL2 WT (Homo sapiens (Human), UniProt P10415); assay: TR-FRET competitive binding assay, BCL2 WT; conditions: Ki determined from IC50, read-out: TR_FRET EKI_Bcl2 WT
Procedure: (§1) The relative binding potency of each compound was determined in a competitive binding assay using time resolved-fluorescence resonance energy transfer (TR-FRET). The method utilised a fluorescein labelled peptide derived from PUMA (5Flu-Ahx-[…]-NH2 wherein Ahx means 6-hexanoic acid monomer and the amino acid sequence is referred to as SEQ ID:01) which binds to a terbium labelled BCL2 or BCLXL protein. The degree of binding or corresponding compound inhibition can be quantified by the TR-FRET signal between the terbium donor and fluorescein acceptor.
(§2) The human BCL2_wild-type (also named BCL2_wt), BCL2_G101V mutant and BCLXL_wild-type were E. coli expressed as a N-terminal Halo-fusion proteins and singly labelled with Terbium on the Halo protein to afford the following amino acid sequences:
(§3) wherein the BCL2(1-207) sequence corresponds to UniProtKB® primary accession number P10415 and the BCLXL(2-196) sequence corresponds to UniProtKB® primary accession number Q07817-1.
(§4) The assay was performed in a 40 μL volume in white 384-standard well plates (Corning #3574). An 11-point serial dilution of each compound was prepared in DMSO and transferred directly to plate followed by addition of fluorescein labelled peptide and lastly protein. Final assay conditions were 0.5 nM BCL2_wt, BCL2_G101V, BCL2_D103Y, BCL2_F104I, BCL2_D111A or BCLXL_wt, 2 or 20 nM fluorescein labelled peptide, 50 mM Hepes pH 7.5, 150 mM NaCl, 0.5 mM TCEP (Tris(2-carboxyethyl)phosphine), 0.05% Tween 20, 5% DMSO. The mixture was incubated for 2 hours at 23° C.
(§5) TR-FRET measurements were performed on a Biotek Synergy Neo plate reader. TR-FRET was measured by excitation of the Terbium-donor at 340 nm and subsequent (delay time 100 μs) measurement of terbium and fluorescein emission at 495 nm and 520 nm, respectively, over a collection time of 300 μs. The TR-FRET signal was calculated as the emission-ratio at 520 nm over 495 nm.
(§6) The TR-FRET ratio readout for test compounds was normalized against 0% inhibition controls wells and 100% inhibition control wells. Test compound potency (IC50) was estimated by nonlinear regression using the sigmoidal dose-response (variable slope) using Xlfit 4 (IDBS, Guildford, Surrey, UK, model 205). Were the IC50 could not be determined the % inhibition at the highest tested concentration is given.
(§7) y=(A+((B−A)/(1+((C/x)^D))))
(§8) where y is the normalized TR-TRET ratio measurement for a given concentration of test compound, x is the concentration of test compound, A is the estimated efficacy (% inhibition) at infinite compound dilution, and B is the maximal efficacy (% inhibition). C is the IC50 value and D is the Hill slope coefficient.
(§9) The K1 values were determined from the IC50 values according to Cer et al, Nucleic Acids Res, 2009, July 1; 37 (WebServer issue): W441-W445.

BCLXL WT = BCLXL WT (Homo sapiens (Human), UniProt Q07817); assay: TR-FRET competitive binding assay, BCLXL WT; conditions: for Ki: BCLXL WT, Ki determined from IC50, read-out: TR_FRET EKI BclxL; for TR_FRET EKI BCLxL/WT selectivty ratio: ratio Ki BCLxL / Ki BCL2 WT
Procedure: as §1, §2, §3, §4, §5, §6, §7, §8, §9

BCL2 G101V [1] = target: BCL2 G101V (Homo sapiens, UniProt P10415, G101V); assay: TR-FRET competitive binding assay, BCL2 G101V; conditions: BCL2 G101V; Ki determined from IC50; read-out: TR_FRET EKI_Bcl2 G101V
Procedure: as §1, §2, §3, §4, §5, §6, §7, §8, §9

BCL2 G101V [2] = assay: TR-FRET competitive binding assay, BCL2 G101V; set-up: species or system human; conditions: ratio Ki BCL2 G101V / Ki BCL2 WT
Procedure: as §1, §2, §3, §4, §5, §6, §7, §8, §9

BCL2 D103Y = BCL2 D103Y (Homo sapiens, UniProt P10415, D103Y); assay: TR-FRET competitive binding assay, BCL2 D103Y; conditions: Ki determined from IC50, read-out: TR_FRET EKI_Bcl2 D103Y
Procedure: as §1, §2, §3, §4, §5, §6, §7, §8, §9

KMS-12-PE Bcl-2 WT = assay: In vitro cytotoxicity CellTiter-Glo 48 h, KMS-12-PE Bcl-2 WT; assay type: cell-based; conditions: Homo sapiens, KMS-12-PE, C50 = concentration needed to reach 50% of the cellular viability
Procedure: (§10) KMS-12-PE (ACC 606) were purchased from the Leibniz-Institute DSMZ (Braunschweig, Germany) and were grown at 37° C. in a humidified atmosphere with […] in media recommended by the suppliers. Lentiviral particles containing Bcl-2 wild type (also named “Bcl2 WT”) and Bcl-2 mutated on G101V (also named “Bcl2 G101V”) were cloned into pcLV-CMV-DEST-IRES-TagRFP. Lentiviral particles (1×106) were mixed with Polybrene at 8 µg/ml and transduced by spinoculation for 1 h at 32° C. and incubated overnight. After 8 days, TagRFP positive-cells were sorted by FACS. BCL2 expression was monitored by immunoblotting using anti-Flag and anti-BCL2 antibodies.
(§11) Cellular viability was monitored with the cell viability assay (CellTiter-Glo®) on KMS-12-PE WT and G101V cell lines. The CellTiter-Glo® (CTG) Luminescent Cell Viability Assay (from Promega) is a homogeneous method to determine the number of viable cells in culture based on quantitation of the ATP present, which signals the presence of metabolically active cells.
(§12) Dose response of compounds are performed with 10 mM stock solutions (DMSO), 11-points curve, in a 384-well compound plate. The assay plate is prepared by stamping 40 nL from compound dilution plate of all different concentrations (e.g. 10 mM to have final […] assay test) into a cell culture microplate, using Echo acoustic liquid handling (Labcyte, Beckman). 40 μl of cell solution is added and cells are incubated with compounds for 48 h at 37° C., 5% CO2. CTG was added to the cells (according to the manufacturer instructions) and luminescence intensity was recorded using the Pherastar plate reader (BMG).
(§13) This assay provides in vitro cellular potency of the tested Bcl-2 inhibitors, measuring the C50, defined as the concentration needed to reach 50% of the cellular viability.

KMS-12-PE Bcl-2 G101V = assay: In vitro cytotoxicity CellTiter-Glo 48 h, KMS-12-PE Bcl-2 G101V; assay type: cell-based; conditions: for Ratio (G101V/WT): C50 KMS-12-PE Bcl-2 G101V over C50 KMS-12-PE Bcl-2 WT; for IC50: Homo sapiens, KMS-12-PE, 48 h, CellTiter-Glo, C50 = concentration needed to reach 50% of the cellular viability
Procedure: as §10, §11, §12, §13

Sequence of BCLXL WT (Q07817 other isoform, or with tags, fused parts or gaps): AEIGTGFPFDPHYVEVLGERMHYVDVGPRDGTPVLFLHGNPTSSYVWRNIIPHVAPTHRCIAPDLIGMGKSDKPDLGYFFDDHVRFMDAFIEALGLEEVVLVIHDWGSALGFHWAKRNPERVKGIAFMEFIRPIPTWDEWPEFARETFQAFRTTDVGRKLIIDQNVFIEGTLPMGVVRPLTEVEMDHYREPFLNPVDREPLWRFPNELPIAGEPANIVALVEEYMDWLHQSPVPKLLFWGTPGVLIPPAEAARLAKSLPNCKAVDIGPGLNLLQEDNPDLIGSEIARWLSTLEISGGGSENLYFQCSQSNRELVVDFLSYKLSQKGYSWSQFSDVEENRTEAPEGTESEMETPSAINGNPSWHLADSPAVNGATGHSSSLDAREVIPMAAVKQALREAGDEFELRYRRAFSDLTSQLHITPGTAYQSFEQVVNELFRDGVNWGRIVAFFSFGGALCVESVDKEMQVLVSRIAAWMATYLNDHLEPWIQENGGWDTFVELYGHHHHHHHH

Row | SMILES | Ki (BCL2 WT) [nM] | Ki (BCLXL WT) [nM] | TR_FRET EKI BCLxL/WT selectivty ratio (BCLXL WT) | Ki (BCL2 G101V [1]) [nM] | TR_FRET EKI G101V/WT selectivty ratio (BCL2 G101V [2]) | Ki (BCL2 D103Y) [nM] | IC50 (KMS-12-PE Bcl-2 WT) [µM] | Ratio (G101V/WT) (KMS-12-PE Bcl-2 G101V) | IC50 (KMS-12-PE Bcl-2 G101V) [µM]
1 | Cc1c(N(C(=O)c2cc(-c3cc4c(cc3C(=O)N3Cc5ccccc5C[C@H]3C)CN(C(=O)C(F)(F)c3ccc(N5CCN(C)CC5)cc3)CC4)n(C)c2C)c2ccc(O)cc2)cc(C#N)n1C [Example 26, N-(5-cyano-1,2-dimethylpyrrol-3-yl)-5-(2-{2,2-difluoro-2-[4-(4-methylpiperazin-1-yl)phenyl]acetyl}-7-{[(3R)-3-methyl-3,4-dihydro-1H-isoquinolin-2-yl]carbonyl}-3,4-dihydro-1H-isoquinolin-6-yl)-N-(4-hydroxyphenyl)-1,2-dimethylpyrrole-3-carboxamide] | 1.1 | 23.2 | 21.1 | 5.3 | 4.8 | 0.83 | – | – | –
2 | COc1ncc(N(C(=O)c2cc(-c3cc4c(cc3C(=O)N3Cc5ccccc5C[C@H]3C)CN(C(=O)Cc3cccc(N5CC6(CN(C)C6)C5)c3)CC4)n(C)c2C)c2ccccc2)cc1F [Example 198, N-(5-fluoro-6-methoxy-3-pyridyl)-1,2-dimethyl-5-[2-[2-[3-(6-methyl-2,6-diazaspiro[3.3]heptan-2-yl)phenyl]acetyl]-7-[(3R)-3-methyl-3,4-dihydro-1H-isoquinoline-2-carbonyl]-3,4-dihydro-1H-isoquinolin-6-yl]-N-phenyl-pyrrole-3-carboxamide] | 0.01 | 0.6 | 58.6 | 1.4 | – | 0.07 | 0.0349 | – | –
3 | Cc1c(C(=O)N(c2ccccc2)c2cnn(C(F)F)c2)cc(-c2cc3c(cc2C(=O)N2Cc4ccccc4C[C@H]2C)CN(C(=O)Cc2ccc(OCCN(C)C)cc2)CC3)n1C [Example 199, N-[1-(difluoromethyl)pyrazol-4-yl]-5-[2-[2-[4-[2-(dimethylamino)ethoxy]phenyl]acetyl]-7-[(3R)-3-methyl-3,4-dihydro-1H-isoquinoline-2-carbonyl]-3,4-dihydro-1H-isoquinolin-6-yl]-1,2-dimethyl-N-phenyl-pyrrole-3-carboxamide] | 0.08 | 8.8 | 116.3 | 4.6 | – | 0.19 | 0.0244 | – | –
4 | COc1ncc(N(C(=O)c2cc(-c3cc4c(cc3C(=O)N3Cc5ccccc5C[C@H]3C)CN(C(=O)Cc3ccc(OCCN5CCOCC5)cc3)CC4)n(C)c2C)c2ccccc2)cc1C#N [Example 201, N-(5-cyano-6-methoxy-3-pyridyl)-1,2-dimethyl-5-[7-[(3R)-3-methyl-3,4-dihydro-1H-isoquinoline-2-carbonyl]-2-[2-[4-(2-morpholinoethoxy)phenyl]acetyl]-3,4-dihydro-1H-isoquinolin-6-yl]-N-phenyl-pyrrole-3-carboxamide] | 0.05 | 16.4 | 322.5 | 1.2 | – | 0.09 | 0.0394 | – | –
5 | Cc1c(N(C(=O)c2cc(-c3cc4c(cc3C(=O)N3Cc5ccccc5C[C@H]3C)CN(C(=O)Cc3cccc(N5CCCN(C)CC5)c3)CC4)n(C)c2C)c2ccc(O)cc2)cc(C#N)n1C [Example 231] | – | – | – | – | – | – | 0.0391 | – | –
6 | Cc1c(N(C(=O)c2cc(-c3cc4c(cc3C(=O)N3Cc5ccccc5C[C@H]3C)CN(C(=O)Cc3ccc(OCCC5CCN(C)CC5)nc3)CC4)n(C)c2C)c2ccc(O)cc2)cc(C#N)n1C [Example 232] | – | – | – | – | – | – | 0.0328 | 2.0 | 0.0657

Second part, led by results:

Row | Ki (BCL2 WT) [nM] | Ki (BCLXL WT) [nM] | TR_FRET EKI BCLxL/WT selectivty ratio (BCLXL WT) | Ki (BCL2 G101V [1]) [nM] | TR_FRET EKI G101V/WT selectivty ratio (BCL2 G101V [2]) | Ki (BCL2 D103Y) [nM] | SMILES | IC50 (KMS-12-PE Bcl-2 WT) [µM] | Ratio (G101V/WT) (KMS-12-PE Bcl-2 G101V) | IC50 (KMS-12-PE Bcl-2 G101V) [µM]
7 | 0.12 | 1.3 | 10.8 | 0.5 | – | 0.46 | COCc1ccc(CC(=O)N2CCc3cc(-c4cc(C(=O)N(c5ccc(O)cc5)c5cc(C#N)n(C)c5C)c(C)n4C)c(C(=O)N4Cc5ccccc5C[C@H]4C)cc3C2)cc1 [Example 87, N-(5-cyano-1,2-dimethyl-1H-pyrrol-3-yl)-N-(4-hydroxyphenyl)-5-(2-{2-[4-(methoxymethyl)phenyl]acetyl}-7-[(3R)-3-methyl-1,2,3,4-tetrahydroisoquinoline-2-carbonyl]-1,2,3,4-tetrahydroisoquinolin-6-yl)-1,2-dimethyl-1H-pyrrole-3-carboxamide] | 0.0073 | 5.43 | 0.0394
8 | 0.03 | 4 | 133.3 | 0.3 | – | 0.12 | Cc1c(N(C(=O)c2cc(-c3cc4c(cc3C(=O)N3Cc5ccccc5C[C@H]3CN3CCC[C@@H]3C)CN(C(=O)Cc3ccc(OCCN5CCOCC5)cc3F)CC4)n(C)c2C)c2ccc(O)cc2)cc(C#N)n1C [Example 173, N-(5-cyano-1,2-dimethylpyrrol-3-yl)-5-[2-(2-{2-fluoro-4-[2-(morpholin-4-yl)ethoxy]phenyl}acetyl)-7-{[(3S)-3-{[(2S)-2-methylpyrrolidin-1-yl]methyl}-3,4-dihydro-1H-isoquinolin-2-yl]carbonyl}-3,4-dihydro-1H-isoquinolin-6-yl]-N-(4-hydroxyphenyl)-1,2-dimethylpyrrole-3-carboxamide] | 0.0084 | 5.5095 | 0.0465
9 | 0.01 | 5.3 | 410.0 | 0.2 | – | 0.04 | Cc1c(C(=O)N(c2ccc(O)cc2)c2cnn(C(F)F)c2)cc(-c2cc3c(cc2C(=O)N2Cc4ccccc4C[C@H]2C)CN(C(=O)Cc2ccc(OCCN4CCOCC4)cc2F)CC3)n1C [Example 186, N-[1-(difluoromethyl)pyrazol-4-yl]-5-[2-[2-[2-fluoro-4-(2-morpholinoethoxy)phenyl]acetyl]-7-[(3R)-3-methyl-3,4-dihydro-1H-isoquinoline-2-carbonyl]-3,4-dihydro-1H-isoquinolin-6-yl]-N-(4-hydroxyphenyl)-1,2-dimethyl-pyrrole-3-carboxamide] | 0.0047 | – | –
